Measurements taken from patent US20250127863A1, “ANTIMICROBIAL PEPTIDE FOR ONYCHOMYCOSIS” (CBMR SCIENTIFIC NANOSCIENCE B.V., priority 2019, published 2025).
No end group written: not given here.

What was measured:
Aspergillus terreus = assay: MIC90 growth inhibition; type: cell-based; conditions: RPMI 1640 one-fourth strength
Method: (§1) The minimum inhibitory concentration (MIC) value is defined as the lowest sample concentration that inhibited growth. In the Examples, the MIC90 value is presented, which MIC90 values are determined according to established methods known to the person with the skills in the relevant art. Experiments; 1×10E5 CFU of various strains/ml were incubated for 24-48 h at 37° C. in 4× diluted medium of RPMI 1640 with the indicated concentrations of antimicrobial peptide hLF(1-11) [SEQ ID NO: 3]. As controls various strains cells were incubated for 24-48 h at 37° C. with no agent (antimicrobial peptide), and subsequently, growth of the microbial organism (e.g. yeast, bacterium) was monitored by using spectrophotometry with a spectrophotometer at 620 nm. […] ND=Not done. Representative single assay data are listed rather than a range, for clarity reasons and for ease of comparison of peptide efficacy. The MIC was calculated as the lowest antibiotic (antimicrobial peptide) concentration at which growth of the assessed yeast or bacterium (microbe) was inhibited (inhibitory concentration IC90).

Malassezia globosa = assay: MIC90 growth inhibition; type: cell-based; conditions: RPMI 1640 one-fourth strength
Method: as §1

Fusarium oxysporum = assay: MIC90 growth inhibition; type: cell-based; conditions: RPMI 1640 one-fourth strength
Method: as §1

[1] = system: Cryptococcus neoformans ▴ SKN7 (UMC); assay: MIC90 growth inhibition; type: cell-based; conditions: genetically modified type species, RPMI 1640 one-fourth strength
Method: as §1

Botrytis cinerea = assay: MIC90 growth inhibition; type: cell-based; conditions: RPMI 1640 one-fourth strength
Method: as §1

[2] = system: Paracoccidioides brasiliensis; assay: MIC90 growth inhibition; type: cell-based; conditions: RPMI 1640 one-fourth strength
Method: as §1

Helicobacter pylori = assay: MIC90 growth inhibition; type: cell-based; conditions: RPMI 1640 one-fourth strength
Method: as §1

Cladosporium spp = assay: MIC90 growth inhibition; type: cell-based; conditions: RPMI 1640 one-fourth strength
Method: as §1

[3] = system: Staphylococcus epidermidis; assay: MIC90 growth inhibition; type: cell-based; conditions: RPMI 1640 one-fourth strength
Method: as §1

Exophiala dermatitidis = assay: MIC90 growth inhibition; type: cell-based; conditions: RPMI 1640 one-fourth strength
Method: as §1

[4] = system: Zygosaccharomyces bisprous; assay: MIC90 growth inhibition; type: cell-based; conditions: RPMI 1640 one-fourth strength
Method: as §1

Epidermophyton floccosum = assay: MIC90 growth inhibition; type: cell-based; conditions: RPMI 1640 one-fourth strength
Method: as §1

onychomycosis = assay: Clinical study for treating onychomycosis (Example 2); type: in vivo, human; conditions: twice per day
Method: A peptide solution was tested for its treatment effect on onychomycosis in human subjects. The peptide was antimicrobial peptide hLF1-11 (GRRRRSVQWCA) [SEQ ID NO: 3] in water comprising 0.01% by volume acetic acid, based on the total volume of the peptide solution.
Forty two patients are treated with the peptide solution; 20 patients (4 male/16 female) were treated with a solution comprising a low concentration of 3 mg/L of the peptide (dose twice per day), 10 patients (3 male/7 female) were treated with the peptide solution with a high concentration of 30 mg/L of the peptide (dose twice per day) and 12 patients (8 male/4 female) with a combination of high and low concentration (4 weeks 30 mg/L following by 3 mg/L continuing treatment, dose twice per day).
Patients were categorized into groups based on their skin and nail disorders (visible inspection by independent pedicure); low to mild fungal nail problems (treatment group with 3 mg/L for patients in this group), mild to severe fungal nail problems (combination group 30 mg/L-3 mg/L) and highly infected onychomycosis (30 mg/L group).
Results: 90% of the patients observed an improvement in the appearance of the nail after 2 weeks, 92% observed improvement after 4-10 weeks of treatment. Complete recovery was visible for >98% of the patients after 24 weeks. No exclusions were made. Some patients with severe infections (diabetic/autoimmune related) in the high/low combination treatment group were treated longer with the peptide at high dose. All patients continued the treatment as long as it takes to recover completely from the fungal nail infection (in general, relating to the outgrowth of a complete new nail). Duration of the trial was 6-12 months (depending on the infection and the outgrowth of the nail).

[5] = system: Scopulariopsis breyicaulis; assay: MIC90 growth inhibition, organisms related to onychomycosis; type: cell-based; conditions: RPMI 1640 one-fourth strength
Method: as §1

Trichophyton spp = assay: as above; type: cell-based; conditions: Trichophyton spp (Table 2); RPMI 1640 one-fourth strength
Method: as §1

Malassezia spp = assay: as above; type: cell-based; conditions: RPMI 1640 one-fourth strength
Method: as §1

Candida albicans spp = assay: as above; type: cell-based; conditions: RPMI 1640 one-fourth strength
Method: as §1

Epidermophyton spp = assay: as above; type: cell-based; conditions: RPMI 1640 one-fourth strength
Method: as §1

Microsporum spp = assay: as above; type: cell-based; conditions: RPMI 1640 one-fourth strength
Method: as §1

[6] = system: Trichophyton interdigitalis; assay: as above; type: cell-based; conditions: RPMI 1640 one-fourth strength
Method: as §1

Hypercrealis spp = assay: as above; type: cell-based; conditions: RPMI 1640 one-fourth strength
Method: as §1

C. glabrata (LUMC) = assay: MIC90 growth inhibition; type: cell-based, Candida glabrata; conditions: RPMI 1640 one-fourth strength
Method: as §1

C. glabrata spp. = assay: MIC90 growth inhibition; type: cell-based, Candida glabrata; conditions: RPMI 1640 one-fourth strength
Method: as §1

C. glabrata CBS-138 = assay: MIC90 growth inhibition; type: cell-based, Candida glabrata; conditions: RPMI 1640 one-fourth strength
Method: as §1

C. glabrata CMC-1933 = assay: MIC90 growth inhibition; type: cell-based, Candida glabrata; conditions: RPMI 1640 one-fourth strength
Method: as §1

C. krusei spp = assay: MIC90 growth inhibition; type: cell-based, Candida krusei; conditions: RPMI 1640 one-fourth strength
Method: as §1

C. krusei CMC-2002 = assay: MIC90 growth inhibition; type: cell-based, Candida krusei; conditions: RPMI 1640 one-fourth strength
Method: as §1

C. krusei (LUMC) = assay: MIC90 growth inhibition; type: cell-based, Candida krusei; conditions: RPMI 1640 one-fourth strength
Method: as §1

C. albicans CMC-1968 = assay: MIC90 growth inhibition; type: cell-based, Candida albicans; conditions: RPMI 1640 one-fourth strength
Method: as §1

C. albicans (WT) = assay: MIC90 growth inhibition; type: cell-based, Candida albicans; conditions: RPMI 1640 one-fourth strength
Method: as §1

C. albicans CBS-562 = assay: MIC90 growth inhibition; type: cell-based, Candida albicans; conditions: RPMI 1640 one-fourth strength
Method: as §1

GRRRRSVQWCA [hLF1-11, Gly Arg Arg Arg Arg Ser Val Gln Trp Cys Ala]
Inhibitory concentration MIC (MIC90) (Aspergillus terreus): MIC = 2.5-12.5 μg/ml
Inhibitory concentration MIC (MIC90) (Malassezia globosa): MIC = 12.5-50 μg/mL
Inhibitory concentration MIC (MIC90) (Fusarium oxysporum): MIC = 8-16 μM
Inhibitory concentration MIC (MIC90) [1]: MIC = 6.3 μg/ml
Inhibitory concentration MIC (MIC90) (Botrytis cinerea): MIC = 16 μM
Inhibitory concentration MIC (MIC90) [2]: MIC = 0.63-1.25 μg/ml
Inhibitory concentration MIC (MIC90) (Helicobacter pylori): MIC = 12.5-50 μg/ml
Inhibitory concentration MIC (MIC90) (Cladosporium spp): MIC = 3.1-12.5 μg/ml
Inhibitory concentration MIC (MIC90) [3]: MIC = 3.1 μg/ml
Inhibitory concentration MIC (MIC90) (Exophiala dermatitidis): MIC = 2 μg/ml
Inhibitory concentration MIC (MIC90) [4]: MIC = 40 μg/ml
Inhibitory concentration MIC (MIC90) (Epidermophyton floccosum): MIC = 0.31-2.5 μg/ml
patients who observed an improvement in the appearance of the nail (onychomycosis; after 2 weeks, 3 mg/L, 30 mg/L or combination, 42 patients): 90%
patients who observed improvement (onychomycosis; after 4-10 weeks of treatment): 92%
patients with complete recovery visible (onychomycosis; after 24 weeks): > 98%
Inhibitory concentration MIC (MIC90) [5]: MIC = 25-50 μg/mL
Inhibitory concentration MIC (MIC90) (Trichophyton spp): MIC = 6.3-50 μg/ml
Inhibitory concentration MIC (MIC90) (Malassezia spp): MIC = 12.5-50 μg/mL
Inhibitory concentration MIC (MIC90) (Candida albicans spp): MIC = 25-50 μg/mL
Inhibitory concentration MIC (MIC90) (Epidermophyton spp): MIC = 25-50 μg/mL
Inhibitory concentration MIC (MIC90) (Microsporum spp): MIC = 25-50 μg/mL
Inhibitory concentration MIC (MIC90) [6]: MIC = 25-50 μg/mL
Inhibitory concentration MIC (MIC90) (Hypercrealis spp): MIC = 25-50 μg/mL
Inhibitory concentration MIC (MIC90) (C. glabrata (LUMC)): MIC = 25 μg/mL
Inhibitory concentration MIC (MIC90) (C. glabrata spp.): MIC = 25 μg/mL
Inhibitory concentration MIC (MIC90) (C. glabrata CBS-138): MIC = 25 μg/mL
Inhibitory concentration MIC (MIC90) (C. glabrata CMC-1933): MIC = 25 μg/mL
Inhibitory concentration MIC (MIC90) (C. krusei spp): MIC = 10-25 μg/ml
Inhibitory concentration MIC (MIC90) (C. krusei CMC-2002): MIC = 25 μg/mL
Inhibitory concentration MIC (MIC90) (C. krusei (LUMC)): MIC = 25 μg/mL
Inhibitory concentration MIC (MIC90) (C. albicans CMC-1968): MIC = 25 μg/mL
Inhibitory concentration MIC (MIC90) (C. albicans (WT)): MIC = 25 μg/ml
Inhibitory concentration MIC (MIC90) (C. albicans CBS-562): MIC = 25 μg/mL
